Values of other authors, collected in US6521254B2, “Single-dose antihistamine/decongestant formulations for treating rhinitis” (J-Med Pharmaceuticals, Inc., priority 1998, dated 2003).

Experiments:
histamine receptors = conditions: for duration of therapeutic benefit suitable for dosing interval (FDA standard, labeling): cetirizine 5 mg and 10 mg, loratidine 10 mg, fexofenadine 180 mg
[1] = compared with other non-sedating and with sedating antihistamines
[2] = 30 mg pseudoephedrine, immediate release, syrup

| Structure (SMILES) | duration of therapeutic benefit suitable for dosing interval (FDA standard, labeling) (histamine receptors) [h] | duration of antihistaminic effect (histamine receptors; oral, human) [h] | duration of therapeutic antihistaminic benefit (histamine receptors; 5 mg cetirizine, immediate release) [h] | time after dosing at which antihistaminic effect is exerted (onset) (histamine receptors; oral, human, given alone / immediate release) | sedation [1] | duration of action [2] [h] |
| --- | --- | --- | --- | --- | --- | --- |
| CCOC(=O)N1CCC(=C2c3ccc(Cl)cc3CCc3cccnc32)CC1 [loratidine] | 24 | > 24 | – | – | – | – |
| O=C(O)COCCN1CCN(C(c2ccccc2)c2ccc(Cl)cc2)CC1 (centres unmarked) [cetirizine] | 24 | 24 | 24 | one | slightly more sedation than other non-sedating antihistamines | – |
| CN[C@@H](C)[C@@H](O)c1ccccc1 [pseudoephedrine] | – | – | – | – | – | 4 to 6 |
